According to patent publication US20070128217A1 (priority 2003, published 2007):

Legend:
[1] = test system: antibodies in sera from SARS patients (sera 1a, 1b, 2, 6, 37, 62, London, SARS-yellow, SARS-green); assay type: binding, human; set-up: Binding of serum 6 to linear peptides of protein X1 of SARS-CoV Urbani / Binding of serum 37 to linear peptides of protein X1 of SARS-CoV Urbani / Binding of serum 6 to looped/cyclic peptide (PEPSCAN-ELISA) / Binding of serum 37 to looped/cyclic peptide (PEPSCAN-ELISA) / Binding of serum 37 to looped/cyclic peptides of protein X1 of SARS-CoV Urbani / Binding of serum 6 to linear peptides of protein X2 / Binding of serum 37 to linear peptides of protein X2 / Binding of serum 37 to looped/cyclic peptides of protein X2 of SARS-CoV Urbani / Binding of serum 6 to linear peptides of protein M of SARS-CoV Urbani / Binding of serum 37 to linear peptides of protein M of SARS-CoV Urbani / Binding of serum 6 to looped/cyclic peptides of protein M of SARS-CoV Urbani / Binding of serum 37 to looped/cyclic peptides of protein M of SARS-CoV Urbani / Binding of serum 6 to linear peptides of protein X3 of SARS-CoV Urbani / Binding of serum 37 to linear peptides of protein X3 of SARS-CoV Urbani / Binding of serum 37 to looped/cyclic peptides of protein X3 of SARS-CoV Urbani / Binding of serum 6 to linear peptides of protein X4 of SARS-CoV Urbani / Binding of serum 37 to linear peptides of protein X4 of SARS-CoV Urbani / Binding of serum 37 to looped/cyclic peptides of protein X4 of SARS-CoV Urbani / Binding of serum 6 to linear peptides of protein X5 of SARS-CoV Urbani / Binding of serum 37 to linear peptides of protein X5 of SARS-CoV Urbani / Binding of serum 37 to looped/cyclic peptides of protein X5 of SARS-CoV Urbani / Binding of serum 6 to linear peptides of protein N of SARS-CoV Urbani / Binding of serum 37 to linear peptides of protein N of SARS-CoV Urbani / Binding of serum 6 to linear peptide (PEPSCAN-ELISA) / Binding of serum 1a to looped/cyclic peptides of protein N of SARS-CoV Urbani / Binding of serum 1b to looped/cyclic peptides of protein N of SARS-CoV Urbani / Binding of serum 2 to looped/cyclic peptides of protein N of SARS-CoV Urbani / Binding of serum 6 to looped/cyclic peptides of protein N of SARS-CoV Urbani / Binding of serum 37 to looped/cyclic peptides of protein N of SARS-CoV Urbani / Binding of serum 62 to looped/cyclic peptides of protein N of SARS-CoV Urbani / Binding of serum London to looped/cyclic peptides of protein N of SARS-CoV Urbani / Binding of serum SARS-green to looped/cyclic peptides of protein N of SARS-CoV Urbani: unit not given here
[2] = test system: control sera (pooled serum of ten healthy LUMC hospital workers; commercial negative donor pooled serum from the Dutch bloodbank); assay type: binding, human; set-up: Binding of Control serum LUMC to linear peptides / Binding of Control serum Blood-bank to linear peptides / Binding of Control serum LUMC to looped peptides / Binding of Control Serum Blood-Bank to Looped peptides / Binding of Control serum LUMC to linear peptides of the protein M of SARS-CoV Urbani / Binding of Control serum Blood-bank to linear peptides of the protein M of SARS-CoV Urbani / Binding of Control serum LUMC to looped peptides of the protein M of SARS-CoV Urbani / Binding of Control Serum Blood-Bank to Looped peptides of the protein M of SARS-CoV Urbani: unit not given here
[3] = test system: rabbit serum obtained by immunizing a rabbit with the SARS-CoV strain Frankfurt 1; assay type: binding; set-up: Binding of a rabbit serum to linear peptides / Binding of a rabbit serum to looped peptides / Rabbit serum linear peptides / Rabbit serum looped peptides / Binding of a rabbit serum to linear peptides of protein N of SARS-CoV Urbani (Rabbit serum linear peptides) / Binding of a rabbit serum to looped/cyclic peptides of protein N of SARS-CoV Urbani (Rabbit serum looped peptides): unit not given here

SNRNRFLYIIKLVFL
0.6: Binding of serum 1a to linear peptides of protein M of SARS-CoV Urbani [1] | Rabbit serum looped peptides [3]
0.3: Binding of serum London to linear peptides of protein M of SARS-CoV Urbani [1] | Binding of serum SARS-yellow to linear peptides of protein M of SARS-CoV Urbani [1]
0.5: Binding of serum 1b to linear peptides of protein M of SARS-CoV Urbani [1] | Binding of serum 6 to linear peptides of protein M of SARS-CoV Urbani [1] | Rabbit serum linear peptides [3]
recognized in looped/cyclic form: Recognition of the peptide by sera of SARS-CoV infected individuals, and form (linear, looped/cyclic) in which it is recognized [1]
0.7: Binding of Control Serum Blood-Bank to Looped peptides of the protein M of SARS-CoV Urbani [2] | Binding of Control serum Blood-bank to linear peptides of the protein M of SARS-CoV Urbani [2] | Binding of Control serum LUMC to linear peptides of the protein M of SARS-CoV Urbani [2]
0.4: Binding of serum 2 to linear peptides of protein M of SARS-CoV Urbani [1] | Binding of serum 37 to linear peptides of protein M of SARS-CoV Urbani [1] | Binding of serum 62 to linear peptides of protein M of SARS-CoV Urbani [1] | Binding of serum SARS-green to linear peptides of protein M of SARS-CoV Urbani [1]
0.9: Binding of Control serum LUMC to looped peptides of the protein M of SARS-CoV Urbani [2]

SPKFTTSLSLHKLLQ
0.6: Binding of serum 1a to linear peptides of protein X2 [1] | Binding of Control serum LUMC to looped peptides [2]
0.4: Binding of serum 1b to linear peptides of protein X2 [1] | Binding of serum 2 to linear peptides of protein X2 [1] | Binding of serum 6 to linear peptides of protein X2 [1] | Binding of serum 6 to looped/cyclic peptides of protein X2 of SARS-CoV Urbani [1] | Binding of serum London to linear peptides of protein X2 [1]
0.2: Binding of serum London to looped/cyclic peptides of protein X2 of SARS-CoV Urbani [1] | Binding of serum SARS-green to looped/cyclic peptides of protein X2 of SARS-CoV Urbani [1]
0.5: Binding of serum 1a to looped/cyclic peptides of protein X2 of SARS-CoV Urbani [1] | Binding of serum 1b to looped/cyclic peptides of protein X2 of SARS-CoV Urbani [1] | Binding of serum 37 to linear peptides of protein X2 [1] | Binding of serum 62 to linear peptides of protein X2 [1] | Binding of serum 62 to looped/cyclic peptides of protein X2 of SARS-CoV Urbani [1] | Binding of serum SARS-green to linear peptides of protein X2 [1] | Binding of Control Serum Blood-Bank to Looped peptides [2] | Binding of Control serum Blood-bank to linear peptides [2] | Binding of a rabbit serum to looped peptides [3]
0.3: Binding of serum 2 to looped/cyclic peptides of protein X2 of SARS-CoV Urbani [1] | Binding of serum 37 to looped/cyclic peptides of protein X2 of SARS-CoV Urbani [1] | Binding of serum SARS-yellow to linear peptides of protein X2 [1] | Binding of serum SARS-yellow to looped/cyclic peptides of protein X2 of SARS-CoV Urbani [1] | Binding of Control serum LUMC to linear peptides [2] | Binding of a rabbit serum to linear peptides [3]

SPKLFIRQEEVQQEL
0.4: Binding of serum 6 to linear peptides of protein X4 of SARS-CoV Urbani [1] | Binding of serum London to looped/cyclic peptides of protein X4 of SARS-CoV Urbani [1]
0.7: Binding of serum 1a to linear peptides of protein X4 of SARS-CoV Urbani [1] | Binding of serum 2 to looped/cyclic peptides of protein X4 of SARS-CoV Urbani [1] | Binding of serum 37 to linear peptides of protein X4 of SARS-CoV Urbani [1] | Binding of serum 62 to linear peptides of protein X4 of SARS-CoV Urbani [1] | Binding of serum London to linear peptides of protein X4 of SARS-CoV Urbani [1]
0.6: Binding of serum 1b to looped/cyclic peptides of protein X4 of SARS-CoV Urbani [1] | Binding of serum 6 to looped/cyclic peptides of protein X4 of SARS-CoV Urbani [1] | Binding of serum 62 to looped/cyclic peptides of protein X4 of SARS-CoV Urbani [1] | Binding of Control Serum Blood-Bank to Looped peptides [2]
0.0: Rabbit serum looped peptides [3]
0.5: Binding of serum 1b to linear peptides of protein X4 of SARS-CoV Urbani [1] | Binding of serum SARS-yellow to linear peptides of protein X4 of SARS-CoV Urbani [1] | Binding of serum SARS-yellow to looped/cyclic peptides of protein X4 of SARS-CoV Urbani [1] | Binding of Control serum Blood-bank to linear peptides [2] | Binding of Control serum LUMC to linear peptides [2] | Rabbit serum linear peptides [3]
0.2: Binding of serum SARS-green to looped/cyclic peptides of protein X4 of SARS-CoV Urbani [1]
0.8: Binding of serum 1a to looped/cyclic peptides of protein X4 of SARS-CoV Urbani [1] | Binding of serum 37 to looped/cyclic peptides of protein X4 of SARS-CoV Urbani [1] | Binding of serum SARS-green to linear peptides of protein X4 of SARS-CoV Urbani [1] | Binding of Control serum LUMC to looped peptides [2]
0.3: Binding of serum 2 to linear peptides of protein X4 of SARS-CoV Urbani [1]
